Reference: patent US20260070945A1, “MACROCYCLIC IMMUNOMODULATORS” (Bristol-Myers Squibb Company, priority 2022, published 2026)
Where a SMILES comes first, the peptide text is derived from it. Bridges are numbered along the chain shown (N, C = ends). [ ]: non-standard residue; d: D form. The star is where a group is joined. ξ: configuration not given here. Phe(4-CONH2) = NC(=O)c1ccc(C[C@H](N)C(=O)O)cc1; Phe(4-COOH) = N[C@@H](Cc1ccc(C(=O)O)cc1)C(=O)O; Bip = N[C@@H](Cc1ccc(-c2ccccc2)cc1)C(=O)O; Phe(3-Me) = Cc1cccc(C[C@H](N)C(=O)O)c1; Val(3-OH) = CC(C)(O)[C@H](N)C(=O)O; 4Pal = N[C@@H](Cc1ccncc1)C(=O)O; Cha = N[C@@H](CC1CCCCC1)C(=O)O; Thr(3ξ) = CC(O)[C@H](N)C(=O)O; Carboxymethyl = O=C(O)C*; NMeA = CN[C@@H](C)C(=O)O; Aun = NCCCCCCCCCCC(=O)O; Dab = NCC[C@H](N)C(=O)O; AEEA = NCCOCCOCC(=O)O

molecular target: T1, PD-1/PD-L1 interaction (PE-labeled human PD-L1-Ig binding to Jurkat cell line over-expressing human PD-1) (Homo sapiens, UniProt Q15116); experiment: Jurkat-PD-1 Cell Binding High-Content Screening Assay (CBA); details: Jurkat-hPD-1 cells, PE-labeled PD-L1-Ig 20 nM final; read-out: Jurkat HPD1 PDL1 IC50
T1 construct: expressed in transfected cells; host or cells: Jurkat
Summary of the method: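 In this imaging assay, cells in 10% FCS medium see compound for 2 h at 37 °C and then labeled ligand at 20 nM final for 1 h. Paraformaldehyde fixation, Hoechst 33342 staining and dPBS washes precede image capture.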

T1 sequence (Q15116 25-288): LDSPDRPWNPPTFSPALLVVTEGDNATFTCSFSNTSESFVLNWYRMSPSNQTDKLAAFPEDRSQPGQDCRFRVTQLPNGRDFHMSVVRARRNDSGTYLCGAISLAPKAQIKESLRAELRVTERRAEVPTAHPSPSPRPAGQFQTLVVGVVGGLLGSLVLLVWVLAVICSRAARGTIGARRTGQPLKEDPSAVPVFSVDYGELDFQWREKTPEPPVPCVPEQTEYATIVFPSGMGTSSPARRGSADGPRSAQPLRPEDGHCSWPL

Row | Compound | IC50
1 | Cc1cccc(C[C@@H]2NC(=O)[C@H](CC(=O)O)NC(=O)[C@H](Cc3ccc(C(=O)O)cc3)NC(=O)[C@H](C(C)O)NC(=O)CSC[C@@H](C(=O)N[C@@H](CCN)C(=O)NCCOCCOCC(=O)NCCCCCCCCCCC(=O)O)NC(=O)[C@H](Cc3ccc(C(=O)O)cc3)NC(=O)[C@H](C(C)C)NC(=O)[C@H](CC3CCCCC3)NC(=O)[C@H](CCN)NC(=O)[C@@H](CC(C)C)NC(=O)[C@H](C)N(C)C(=O)[C@H](Cc3ccc(OCC(=O)O)cc3)NC(=O)[C@H](Cc3ccc(-c4ccccc4)cc3)NC(=O)[C@H](Cc3ccc(C(=O)O)cc3)NC2=O)c1 (stereo partly drawn) [Example 2477] ({CH2CO}-[Thr(3ξ)][Phe(4-COOH)]D[Phe(3-Me)][Phe(4-COOH)][Bip]Y(Carboxymethyl)[NMeA][dL][Dab][Cha]V[Phe(4-COOH)]C[Dab][AEEA][Aun]-OH; thioether N-14) | 24.5 nM
2 | Cc1cccc(C[C@@H]2NC(=O)[C@H](CC(=O)O)NC(=O)[C@H](Cc3ccc(OCC(=O)O)cc3)NC(=O)[C@H](C(C)O)NC(=O)CSC[C@@H](C(=O)N[C@@H](CCN)C(=O)NCCOCCOCC(=O)NCCCCCCCCCCC(=O)O)NC(=O)[C@H](Cc3ccc(OCC(=O)O)cc3)NC(=O)[C@H](C(C)C)NC(=O)[C@H](CC3CCCCC3)NC(=O)[C@H](CCN)NC(=O)[C@@H](CC(C)C)NC(=O)[C@H](C)N(C)C(=O)[C@H](Cc3ccc(OCC(=O)O)cc3)NC(=O)[C@H](Cc3ccc(-c4ccccc4)cc3)NC(=O)[C@H](Cc3ccc(C(=O)O)cc3)NC2=O)c1 (stereo partly drawn) [Example 2478] ({CH2CO}-[Thr(3ξ)]Y(Carboxymethyl)D[Phe(3-Me)][Phe(4-COOH)][Bip]Y(Carboxymethyl)[NMeA][dL][Dab][Cha]VY(Carboxymethyl)C[Dab][AEEA][Aun]-OH; thioether N-14) | 25.2 nM
3 | Cc1cccc(C[C@@H]2NC(=O)[C@H](CC(=O)O)NC(=O)[C@H](Cc3ccc(OCC(=O)O)cc3)NC(=O)[C@H](C(C)O)NC(=O)CSC[C@@H](C(=O)N[C@@H](CCN)C(=O)NCCOCCOCC(=O)NCCCCCCCCCCC(=O)O)NC(=O)[C@H](CC(=O)O)NC(=O)[C@H](C(C)C)NC(=O)[C@H](CC3CCCCC3)NC(=O)[C@H](CCN)NC(=O)[C@@H](CC(C)C)NC(=O)[C@H](C)N(C)C(=O)[C@H](Cc3ccc(OCC(=O)O)cc3)NC(=O)[C@H](Cc3ccc(-c4ccccc4)cc3)NC(=O)[C@H](Cc3ccc(C(=O)O)cc3)NC2=O)c1 (stereo partly drawn) [Example 2479] ({CH2CO}-[Thr(3ξ)]Y(Carboxymethyl)D[Phe(3-Me)][Phe(4-COOH)][Bip]Y(Carboxymethyl)[NMeA][dL][Dab][Cha]VDC[Dab][AEEA][Aun]-OH; thioether N-14) | 19.6 nM
4 | Cc1cccc(C[C@@H]2NC(=O)[C@H](CC(=O)O)NC(=O)[C@H](Cc3ccc(C(N)=O)cc3)NC(=O)[C@H](C(C)O)NC(=O)CSC[C@@H](C(=O)N[C@@H](CCN)C(=O)NCCOCCOCC(=O)NCCCCCCCCCCC(=O)O)NC(=O)[C@H](CCC(=O)O)NC(=O)[C@H](C(C)C)NC(=O)[C@H](CC3CCCCC3)NC(=O)[C@H](CCN)NC(=O)[C@@H](CC(C)C)NC(=O)[C@H](C)N(C)C(=O)[C@H](Cc3ccc(OCC(=O)O)cc3)NC(=O)[C@H](Cc3ccc(-c4ccccc4)cc3)NC(=O)[C@H](Cc3ccc(C(=O)O)cc3)NC2=O)c1 (stereo partly drawn) [Example 2480] ({CH2CO}-[Thr(3ξ)][Phe(4-CONH2)]D[Phe(3-Me)][Phe(4-COOH)][Bip]Y(Carboxymethyl)[NMeA][dL][Dab][Cha]VEC[Dab][AEEA][Aun]-OH; thioether N-14) | 17.4 nM
5 | Cc1cccc(C[C@@H]2NC(=O)[C@H](CC(=O)O)NC(=O)[C@H](Cc3ccc(OCC(=O)O)cc3)NC(=O)[C@H](C(C)O)NC(=O)CSC[C@@H](C(=O)N[C@@H](CCN)C(=O)NCCOCCOCC(=O)NCCCCCCCCCCC(=O)O)NC(=O)[C@H](CCC(=O)O)NC(=O)[C@H](C(C)C)NC(=O)[C@H](CC3CCCCC3)NC(=O)[C@H](CCN)NC(=O)[C@@H](CC(C)C)NC(=O)[C@H](C)N(C)C(=O)[C@H](Cc3ccc(OCC(=O)O)cc3)NC(=O)[C@H](Cc3ccc(-c4ccccc4)cc3)NC(=O)[C@H](Cc3ccc(C(=O)O)cc3)NC2=O)c1 (stereo partly drawn) [Example 2481] ({CH2CO}-[Thr(3ξ)]Y(Carboxymethyl)D[Phe(3-Me)][Phe(4-COOH)][Bip]Y(Carboxymethyl)[NMeA][dL][Dab][Cha]VEC[Dab][AEEA][Aun]-OH; thioether N-14) | 14.6 nM
6 | Cc1cccc(C[C@@H]2NC(=O)[C@H](CC(=O)O)NC(=O)[C@H](Cc3ccc(OCC(=O)O)cc3)NC(=O)[C@H](C(C)O)NC(=O)CSC[C@@H](C(=O)N[C@@H](CCN)C(=O)NCCOCCOCC(=O)NCCOCCOCC(=O)NCCCCCCCCCCC(=O)O)NC(=O)[C@H](CCC(=O)O)NC(=O)[C@H](C(C)C)NC(=O)[C@H](CC3CCCCC3)NC(=O)[C@H](CCN)NC(=O)[C@@H](CC(C)C)NC(=O)[C@H](C)N(C)C(=O)[C@H](Cc3ccc(OCC(=O)O)cc3)NC(=O)[C@H](Cc3ccc(-c4ccccc4)cc3)NC(=O)[C@H](Cc3ccc(C(=O)O)cc3)NC2=O)c1 (stereo partly drawn) [Example 2482] ({CH2CO}-[Thr(3ξ)]Y(Carboxymethyl)D[Phe(3-Me)][Phe(4-COOH)][Bip]Y(Carboxymethyl)[NMeA][dL][Dab][Cha]VEC[Dab][AEEA][AEEA][Aun]-OH; thioether N-14) | 20.7 nM
7 | Cc1cccc(C[C@@H]2NC(=O)[C@H](CC(=O)O)NC(=O)[C@H](Cc3ccc(OCC(=O)O)cc3)NC(=O)[C@H](CCN)NC(=O)CSC[C@@H](C(=O)N[C@@H](CCN)C(=O)NCCCCCCCCCCC(=O)O)NC(=O)[C@H](Cc3c[nH]cn3)NC(=O)[C@H](C(C)(C)O)NC(=O)[C@H](CC3CCCCC3)NC(=O)[C@H](CCN)NC(=O)[C@@H](CC(C)C)NC(=O)[C@H](C)N(C)C(=O)[C@H](Cc3ccc(OCC(=O)O)cc3)NC(=O)[C@H](Cc3ccc(-c4ccccc4)cc3)NC(=O)[C@H](Cc3ccc(OCC(=O)O)cc3)NC2=O)c1 [Example 2483] ({CH2CO}-[Dab]Y(Carboxymethyl)D[Phe(3-Me)]Y(Carboxymethyl)[Bip]Y(Carboxymethyl)[NMeA][dL][Dab][Cha][Val(3-OH)]HC[Dab][Aun]-OH; thioether N-14) | 12.6 nM

same assay, conditions: PE-labeled PD-L1-Ig 20 nM final, Jurkat-hPD-1 cells; read-out: Jurkat HPD1 PDL1 IC50

Row | Compound | IC50
8 | Cc1cccc(C[C@@H]2NC(=O)[C@H](CC(=O)O)NC(=O)[C@H](Cc3ccc(OCC(=O)O)cc3)NC(=O)[C@H](Cc3ccncc3)NC(=O)CSC[C@@H](C(=O)N[C@@H](CCN)C(=O)NCCOCCOCC(=O)NCCCCCCCCCCC(=O)O)NC(=O)[C@H](CCC(=O)O)NC(=O)[C@H](C(C)(C)O)NC(=O)[C@H](CC3CCCCC3)NC(=O)[C@H](CCN)NC(=O)[C@@H](CC(C)C)NC(=O)[C@H](C)N(C)C(=O)[C@H](Cc3ccc(C(=O)O)cc3)NC(=O)[C@H](Cc3ccc(-c4ccccc4)cc3)NC(=O)[C@H](Cc3ccc(C(=O)O)cc3)NC2=O)c1 [Example 2485] ({CH2CO}-[4Pal]Y(Carboxymethyl)D[Phe(3-Me)][Phe(4-COOH)][Bip][Phe(4-COOH)][NMeA][dL][Dab][Cha][Val(3-OH)]EC[Dab][AEEA][Aun]-OH; thioether N-14) | 11.5 nM
9 | Cc1cccc(C[C@@H]2NC(=O)[C@H](CC(=O)O)NC(=O)[C@H](Cc3ccc(OCC(=O)O)cc3)NC(=O)[C@H](Cc3ccncc3)NC(=O)CSC[C@@H](C(=O)NCCOCCOCC(=O)NCCOCCOCC(=O)NCCCCCCCCCCC(=O)O)NC(=O)[C@H](CCC(=O)O)NC(=O)[C@H](C(C)(C)O)NC(=O)[C@H](CC3CCCCC3)NC(=O)[C@H](CCN)NC(=O)[C@@H](CC(C)C)NC(=O)[C@H](C)N(C)C(=O)[C@H](Cc3ccc(C(=O)O)cc3)NC(=O)[C@H](Cc3ccc(-c4ccccc4)cc3)NC(=O)[C@H](Cc3ccc(C(=O)O)cc3)NC2=O)c1 [Example 2486] ({CH2CO}-[4Pal]Y(Carboxymethyl)D[Phe(3-Me)][Phe(4-COOH)][Bip][Phe(4-COOH)][NMeA][dL][Dab][Cha][Val(3-OH)]EC[AEEA][AEEA][Aun]-OH; thioether N-14) | 305 nM
10 | CC(=O)NCCCC[C@@H]1NC(=O)[C@H](C(C)C)NC(=O)[C@H](CC2CCCCC2)NC(=O)[C@H](CCN)NC(=O)[C@@H](CC(C)C)NC(=O)[C@H](C)N(C)C(=O)[C@H](CCC(N)=O)NC(=O)[C@H](Cc2ccc(-c3ccccc3)cc2)NC(=O)[C@H](C(C)C)NC(=O)[C@H](Cc2c[nH]c3ccccc23)NC(=O)[C@H](CC(=O)O)NC(=O)[C@H](Cc2ccc(OCC(=O)O)cc2)NC(=O)[C@H](Cc2ccncc2)NC(=O)CSC[C@@H](C(=O)N[C@@H](CCN)C(=O)NCCOCCOCC(=O)NCCCCCCCCCCC(=O)O)NC1=O [Example 2491] ({CH2CO}-[4Pal]Y(Carboxymethyl)DWV[Bip]Q[NMeA][dL][Dab][Cha]VK(Ac)C[Dab][AEEA][Aun]-OH; thioether N-14) | 19.1 nM
11 | CC(C)C[C@H]1NC(=O)[C@H](C)N(C)C(=O)[C@H](CCC(N)=O)NC(=O)[C@H](Cc2ccc(-c3ccccc3)cc2)NC(=O)[C@H](C(C)C)NC(=O)[C@H](Cc2c[nH]c3ccccc23)NC(=O)[C@H](CC(=O)O)NC(=O)[C@H](Cc2ccc(OCC(=O)O)cc2)NC(=O)[C@H](Cc2ccncc2)NC(=O)CSC[C@@H](C(=O)N[C@@H](CCN)C(=O)NCCOCCOCC(=O)NCCCCCCCCCCC(=O)O)NC(=O)[C@H](CCC(=O)O)NC(=O)[C@H](C(C)C)NC(=O)[C@H](CC2CCCCC2)NC(=O)[C@H](CCN)NC1=O [Example 2492] ({CH2CO}-[4Pal]Y(Carboxymethyl)DWV[Bip]Q[NMeA][dL][Dab][Cha]VEC[Dab][AEEA][Aun]-OH; thioether N-14) | 31.1 nM
12 | CC(=O)NCCCC[C@@H]1NC(=O)[C@H](C(C)C)NC(=O)[C@H](CC2CCCCC2)NC(=O)[C@H](CCN)NC(=O)[C@@H](CC(C)C)NC(=O)[C@H](C)N(C)C(=O)[C@H](CCC(N)=O)NC(=O)[C@H](Cc2ccc(-c3ccccc3)cc2)NC(=O)[C@H](Cc2ccc(OCC(=O)O)cc2)NC(=O)[C@H](Cc2cccc(C)c2)NC(=O)[C@H](CC(=O)O)NC(=O)[C@H](Cc2ccc(OCC(=O)O)cc2)NC(=O)[C@H](Cc2ccncc2)NC(=O)CSC[C@@H](C(=O)N[C@@H](CCN)C(=O)NCCOCCOCC(=O)NCCCCCCCCCCC(=O)O)NC1=O [Example 2493] ({CH2CO}-[4Pal]Y(Carboxymethyl)D[Phe(3-Me)]Y(Carboxymethyl)[Bip]Q[NMeA][dL][Dab][Cha]VK(Ac)C[Dab][AEEA][Aun]-OH; thioether N-14) | 4.8 nM
